Read-outs that look alike come from different tables or passages of the source.

For assay [1], the system named is reactive oxygen species. The class given is cell-based, mouse.
Assay [2] has as its system C2C12 myotubes.
The subject of assay [3] is cellular dehydrogenase activity.
For assay [4], the system named is cytochrome c. The class given is cell-based, mouse.
For assay [5], the system named is OXPHOS gene expression. The format is cell-based, mouse.
The subject of assay [6] is mtOXPHOS transcripts. The format is cell-based, mouse.
Assay [7] relates to mitochondrial membrane potential. The class given is cell-based, mouse.
Assay [8] relates to nuOXPHOS transcripts. The format is cell-based, mouse.
Where [9] appears, read: composite Z-score vs DMSO, Conc 20 μM.
[10] abbreviates: composite Z-score vs mock-treated (DMSO) wells, Conc 20 μM.
Where [11] appears, read: composite Z-score vs mock-treated (DMSO) wells, concentration of each compound in μM.
Where [12] appears, read: 20 μM, composite Z-score vs DMSO.
Setting [13] is: normalized composite Z-score vs mock-treated (DMSO) wells, Conc 20 μM.

In assay [1] (setting [9]), `C[C@H]1CC[C@]2(NC1)O[C@H]1C[C@H]3[C@@H]4CC[C@H]5C[C@@H](O[C@@H]6O[C@H](CO)[C@H](O[C@@H]7O[C@H](CO)[C@@H](O)[C@H](O[C@@H]8OC[C@@H](O)[C@H](O)[C@H]8O)[C@H]7O[C@@H]7O[C@H](CO)[C@@H](O)[C@H](O)[C@H]7O)[C@H](O)[C@H]6O)CC[C@]5(C)[C@H]4CC[C@]3(C)[C@H]1[C@@H]2C` [tomatine] registered an ROS of −2.084. In assay [2] (setting [9]), this molecule came in with a Viability of −4.793. Moreover, the MTT in assay [3] (setting [9]) is reported as −4.122. Further, the cyt c in assay [4] (setting [9]) is reported as −3.979. The molecule also showed a GE-HTS in assay [5] (setting [9]) of −2.151. In assay [6] (setting [9]), this molecule registered a mitoOX of −1.725. Moreover, in assay [7] (setting [9]), the ΔΨm is on record as −2.423. In assay [8] (setting [9]), this molecule returned a nucOX of −2.158.
`CC(C)c1c(O)ccc2c1CCC1[C@@](C)(C=O)CCC[C@]21C` (some centres unmarked) [totaralolal] came in with an ROS in assay [1] (setting [10]) of 1.617. In assay [2] (setting [10]), this molecule yielded a Viability of 0.591. The MTT in assay [3] (setting [10]) is given as 1.526. In addition, the cyt c in assay [4] (setting [10]) was −0.226. The same molecule displayed a GE-HTS in assay [5] (setting [10]) of −0.700. In assay [6] (setting [10]), the mitoOX is listed as −1.230. This molecule displayed a ΔΨm in assay [7] (setting [10]) of 0.460. In addition, in assay [8] (setting [10]), the nucOX was −0.401.
For `COC(=O)[C@@]1(C)CCC[C@]2(C)c3ccc(O)c(C(C)C)c3CCC12` (some centres unmarked) [totarol-19-carboxylic acid, methyl ester], the ROS in assay [1] (setting [10]) is on record as 1.290. This molecule also gave a Viability in assay [2] (setting [10]) of −0.739. The MTT in assay [3] (setting [10]) was found to be 1.019. In assay [4] (setting [10]), this molecule yielded a cyt c of 0.085. The GE-HTS in assay [5] (setting [10]) is −0.323. The same molecule came in with a mitoOX in assay [6] (setting [10]) of −0.853. In assay [7] (setting [10]), this molecule had a ΔΨm of −0.409. Further, the nucOX in assay [8] (setting [10]) is −0.005.
The molecule `CC(C)c1c(O)ccc2c1CCC1C(C)(C(=O)O)CCCC21C` (centres unmarked) [totarol-19-carboxylic acid] registered an ROS in assay [1] (setting [11]) of −0.209. This molecule registered a Viability in assay [2] (setting [11]) of −0.506. In assay [3] (setting [11]), this molecule displayed an MTT of −1.701. Further, the cyt c in assay [4] (setting [11]) is −1.116. Also, the GE-HTS in assay [5] (setting [11]) is on record as −0.399. The molecule further had a mitoOX in assay [6] (setting [11]) of −0.073. The ΔΨm in assay [7] (setting [11]) is reported as −0.008. Moreover, the nucOX in assay [8] (setting [11]) is given as −0.494.
In turn, `CCOC(=O)[C@H](CCc1ccccc1)N[C@@H](C)C(=O)N1[C@H](C(=O)O)C[C@H]2CCCC[C@@H]21` [trandoapril] had an ROS in assay [1] (setting [11]) of 0.572. In assay [2] (setting [11]), this molecule showed a Viability of 0.694. In addition, the MTT in assay [3] (setting [11]) was −0.684. In addition, the cyt c in assay [4] (setting [11]) is 0.687. In assay [5] (setting [11]), this molecule had a GE-HTS of −1.375. This molecule yielded a mitoOX in assay [6] (setting [11]) of −0.884. Also, in assay [7] (setting [11]), the ΔΨm is on record as −0.210. Also, the nucOX in assay [8] (setting [11]) is −1.466.
`CC(=O)OCC(COC(C)=O)OC(C)=O` [triacetin]: the ROS in assay [1] (setting [12]) was determined as 0.431. The Viability in assay [2] (setting [12]) is −0.842. In addition, in assay [3] (setting [12]), the MTT was −0.717. The molecule further returned a cyt c in assay [4] (setting [12]) of −0.264. Besides, in assay [5] (setting [12]), the GE-HTS is recorded as −0.327. In assay [6] (setting [12]), this molecule came in with a mitoOX of −0.569. Also, the ΔΨm in assay [7] (setting [12]) is listed as −0.571. The nucOX in assay [8] (setting [12]) is on record as −0.187.
As to `CC(=O)Oc1ccc(/C=C/c2cc(OC(C)=O)cc(OC(C)=O)c2)cc1` [triacetylresveratrol], the ROS in assay [1] (setting [13]) is −1.361. In assay [2] (setting [13]), this molecule returned a Viability of −0.198. Also, in assay [3] (setting [13]), the MTT is recorded as −2.002. This molecule also displayed a cyt c in assay [4] (setting [13]) of 0.683. The molecule further gave a GE-HTS in assay [5] (setting [13]) of −1.841. The same molecule returned a mitoOX in assay [6] (setting [13]) of −1.401. This molecule came in with a ΔΨm in assay [7] (setting [13]) of −3.502. The same molecule registered a nucOX in assay [8] (setting [13]) of −1.858.
